From patent US9422241B2, “Demethylpenclomedine analogs and their use as anti-cancer agents” (priority 2005, dated 2016)
Values joined by “and” are separate entries in the source; they are usually repeats but may differ in a detail not shown here. Equal entries are not always repeated. “Also recorded” adds a separate entry of the source. Where two headings read alike, the source gives them in different places.

Columns and labels:
U251 GBM = type: in vivo; conditions: for ILS (percentage increased length of survival in days vs. control): U251 GBM in cerebrum, IP qd 1-5, dose not given; for LTC (long-term cure, >30-35 days): U251 GBM, cured/animals
Method: (§1) U251 and D54 tumors, 10^6 cultured cells in 0.03 ml volume were injected via a 25-gauge stainless steel 0.25 inch needle into the right cerebrum with angling toward the center of the brain. […] Doses varied to include an ca LD10 as described above for the MX-1 tumor. BCNU was used clinically to treated advanced gliomas and will be used as a positive control at optimal doses of 17, 10 and 6 mg/kg on a qd 1-5 schedule, since it is also the clinical standard for brain tumors and is very active against this tumor model. DM-PEN at 60, 90 and 135 mg/kg on the same schedule was included as a comparative control. Antitumor activity was assessed on the basis of survival, with the medial day of death of the controls (10 mice) typically being ca. 30-35 days. The in vivo tumor inhibition results are recorded in Table 3.

KG breast CA = assay: in vitro cytotoxic activity against KG breast cancer explants; type: cell-based, human
Source text: (§2) In one embodiment, preferred therapeutic agents are identified herein by assessing their in vitro cytotoxic activity against cultured model cancer cell lines. […] Suitable cell lines against which the disclosed compounds may be assessed are well known to those of skill in the art and include, by way of example, KG breast CA, LM breast CA and 9L rat glioma. […] The KG breast cancer explants were obtained from surgical biopsies of chest wall metastases from breast cancer. The patient had failed on extensive standard and experimental chemo/hormone and radiation therapy protocols. Minced biopsy specimens were grown in RPMI plus 10% FBS with antibiotics at 37° C. and 5% CO2 atmosphere. DM-CHOC-PEN was tested at 0.5-5 μg/mL concentrations in medium and incubated for 24 hrs.

LM breast CA = assay: in vitro cytotoxic activity against LM breast CA; type: cell-based
Source text: as §2

9L rat glioma = assay: in vitro cytotoxic activity against 9L rat glioma; type: cell-based
Source text: as §2

D54 Glioblastoma = assay: antitumor evaluation vs. intracerebrally implanted D54 glioblastoma xenograft; type: in vivo, mice; conditions: D54 IC, 200 mg/kg IP q1d x 5d
Method: as §1

mice [1] = assay: acute IV toxicity in the mouse (single dose); type: in vivo; conditions: for Observations (mortality): 5 M 5 F
Method: This example describes the toxicity of DM-CHOC-PEN to mice as administered via intravenous injections and oral gavage. For the intravenous study, the dose range-finding phase consisted of five treatment groups (one male mouse/group) that received the test article as a single dose at respective dose levels of 50 (dose volume of 5 mL/kg), 100 (dose volume of 10 mL/kg), 150 (dose volume of 15 mL/kg), 250 (dose volume of 25 mL/kg), and 500 mg/kg (intended total dose volume of 50 mL/kg). The 500 mg/kg dose was intended to be a split dose that was to be administered in equal fractions (25 mL/kg/dose) approximately four hours apart (mortality precluded administration of the second portion of the dose). An additional group (one male mouse) served as the control and received the vehicle, soybean oil, at a dose volume of 25 mL/kg using the same route of administration as the treated groups. On Day 4, following the three-day observation period, all surviving dose range-finding animals were euthanized and discarded.
The main study phase consisted of five treatment groups (five mice/sex/group) that received a single dose of the test article at respective dose levels of 50, 100, 200, 400, and 600 mg/kg. An additional group (five mice/sex) served as the control and received the vehicle, 0.3% Klucel+1.92% Tween® 80, using the same dosing regimen as the treated groups. All doses were at a constant volume of 25 mL/kg.
Observations for mortality, morbidity, and the availability of food and water were conducted twice daily for all animals. Observations for clinical signs were conducted daily during the study (approximately one and four hours post-dose on Day 1 and then once daily). Body weights were measured on all animals after receipt, prior to randomization and on Day 1. In addition, body weights were measured for all surviving main study phase animals on Days 7 and 14. Macroscopic evaluations were performed on each main study phase animal at necropsy (Day 15).

Beagle dogs = assay: acute IV toxicity in the dog; type: in vivo; conditions: for Observations (mortality): 2 M 2 F
Method: This example describes the acute toxicity of DM-CHOC-PEN in dogs. An acute study was performed in adult Beagle dogs, which consisted of: DM-CHOC-PEN administered once IV. Sixteen (16) adult beagle dogs (8 male and 8 female) divided into three groups received a single intravenous injection of DM-CHOC-PEN. The DM-CHOC-PEN was administered in 0.3% Klucel+1.92% Tween® 80, The results are recorded in Table 6.

[2] = therapeutic studies (not specified further); type: in vivo
mice [3] = assay: acute IV toxicity in the mouse (single dose); type: in vivo; conditions: Mouse CD2F1, 12 F, 21 days
mice [4] = assay: sub-acute oral mouse toxicity study; conditions: daily for five days, 800-2000 mg/kg
Method: Sub-acute oral mouse toxicity study was conducted at MPI Research, Mattawan, Mich., under GLP conditions in male/female mice.

MX-1 Breast Cancer = assay: antitumor evaluation vs. MX-1 breast cancer xenograft
[5] = test system: patients with advanced solid tumors; conditions: one hour infusion for 5 consecutive days; dysmetria, ataxia, vertigo; cited from earlier work

For `O=NN(CCCl)C(=O)NCCCl` [BCNU, reference compound], the “% ILS” value (U251 GBM; U251, BCNU positive control) was “+92%”.
With “4-Demethyl cholesteryloxycarbonylpenclomedine [DM-CHOC-PEN]” the “in vitro IC50” value (KG breast CA; KG breast CA) was 0.7±0.4 micrograms/mL, the IC50 (KG breast CA; KG breast cancer explants, 0.5-5 μg/mL in medium, incubated 24 hrs) was 1.1 ± 0.5 µg/mL and the “in vitro IC50” value (LM breast CA) was 1.0±0.5 micrograms/mL. For the same compound, the “in vitro IC50” value (9L rat glioma) was 1.1±0.4 micrograms/mL, the neurotoxicity (U251 GBM; DM-CHOC-PEN treatment regimen in the animal studies) was “did not demonstrate neurotoxicity” and the long-term survivors (U251 GBM; Table 3, U251) was 20%. The “ILS (percentage increased length of survival in days vs. control)” value (U251 GBM; Table 3) was 29%, the “LTC (long-term cure, >30-35 days)” value (U251 GBM; Table 3) was “⅕” and the “increase in survival compared to DM-PEN” value (U251 GBM; U251, IP daily x 5 days) was “two-fold”. For the same compound, the tumor burden reduction (U251 GBM; U251, IP daily x 5 days) was “log107”, the “% Increase in Life Span (% ILS)” value (U251 GBM; U251 IC, 135 mg/kg IP q1d x 5d) was “+29%” and the “% Long Term Survivors (% LTS)” value (U251 GBM; U251 IC, 135 mg/kg IP q1d x 5d, LTS >90 days, 135 mg/kg) was 20% and 20 (1/5 CR) %. For the same compound, the weight loss (U251 GBM; U251 xenograft mice, IP daily x 5) was “no weight loss”, the “% Increase in Life Span (% ILS)” value (D54 Glioblastoma) was “+3%” and the “% Long Term Survivors (% LTS)” value (D54 Glioblastoma) was 20 (1/5 CR) %. The “macroscopic findings at necropsy” value (mice [1]; Day 15) was “No macroscopic findings”, the LD50 (mice [1]; Mouse, IV single dose) was 0.39 g/kg and the “time until the last death” value (mice [1]; Mouse, IV, 14-day study) was 2 to 14 days. The “Comparable Human IV Dosage” value (mice [1]; estimated from mouse LD10) was 39 mg/m^2, the body weight effects (mice [1]; mice surviving the 14-day observation period vs controls) was “No definitively clear treatment-related body effects” and the “intravenous LD10” value (mice [1]; mice, combined sexes, single dose) was 136 mg/kg. The “intravenous LD50” value (mice [1]; mice, combined sexes, 95% confidence limits 298 to 502 mg/kg) was 385 mg/kg, the “Observations (mortality)” value (mice [1]; single IV dose 50 mg/kg, 50 mg/kg) was 1 of 10 and 0 M and 1 F died and the “Observations (mortality)” value (mice [1]; single IV dose 100 mg/kg, 100 mg/kg) was “No animals died; also recorded: No deaths”. For the same compound, the “Observations (mortality)” value (mice [1]; single IV dose 200 mg/kg, 200 mg/kg) was 1 of 10 and 0 M and 1 F died, the “Observations (mortality)” value (mice [1]; single IV dose 400 mg/kg, 400 mg/kg) was 7 of 10 and 4 M and 3 F died and the “Observations (mortality)” value (mice [1]; single IV dose 600 mg/kg, 600 mg/kg) was 8 of 10 and 5 M and 3 F died. The clinical signs (mice [1]; single IV dose 50-600 mg/kg, both sexes, generally dose-dependent) was “decreased activity, rapid/difficult/slow/shallow breathing, limbs splayed, tremors and skin cold to touch”, the “deaths in dose range-finding phase” value (mice [1]; single IV dose in soybean oil, at 0, 100, 250 and 500 mg/kg, one male mouse/group) was “immediate deaths” and the “Acute IV (LD10)” value (Beagle dogs; Dog) was greater than 30 mg/kg. The LD50 (Beagle dogs; Dog, Beagle, IV single dose, 10 days) was greater than 0.03 g/kg, the “Observations (mortality)” value (Beagle dogs; IV once 10 mg/kg) was “No deaths” and the “Observations (mortality)” value (Beagle dogs; IV once 20 mg/kg) was “No deaths”. The “Observations (mortality)” value (Beagle dogs; IV once 30 mg/kg) was “No deaths”, the “Comparable Human IV Dosage” value (Beagle dogs; estimated from dog LD10) was greater than 600 mg/m^2 and the “effects directly related to the test article” value (Beagle dogs; single IV injection 10, 20 and 30 mg/kg) was “no effects that were directly related to the test article”. The “dosing range in which responses were seen” value [2] was 150 to 225 mg/kg, the LD50 (mice [3]) was 0.39 g/kg and the mortality (mice [4]) was “Only one death occurred at 800 mg/kg”. For the same compound, the seizures (mice [4]) was “No seizures noted”, the clinical observations (mice [4]; similar in controls) was “some degree of lethargy and unkept appearance” and the “% Increase in Life Span (% ILS)” value (MX-1 Breast Cancer; MX-1 IC, 25 mg/kg IP q1d x 5d) was “+6%”. For the same compound, the “% Increase in Life Span (% ILS)” value (MX-1 Breast Cancer; MX-1 IC, 50 mg/kg IP q1d x 5d) was “+20%”, the “% Long Term Survivors (% LTS)” value (MX-1 Breast Cancer; MX-1 IC, printed on the 25 mg/kg line (25 and 50 mg/kg tested), IP q1d x 5d) was 17% and 17 (1/6 CR) % and the weight loss (MX-1 Breast Cancer; MX-1 tumor mice, daily dosing for 5 days) was “no weight loss”.
For `COc1nc(C(Cl)(Cl)Cl)c(Cl)c(OC)c1Cl` [PEN, 3,5-dichloro-4,6-dimethoxy-2-(trichloromethyl)-pyridine], the “neurotoxicity in clinical trials” value [5] is given as “dose-limiting neurotoxicity was observed”.
For `COc1[nH]c(C(Cl)(Cl)Cl)c(Cl)c(=O)c1Cl` [DM-PEN, 4-demethylpenclomedine, reference compound], the activity in vitro (KG breast CA; requires prior activation per the liver) was “not active in vitro”, the “ILS (percentage increased length of survival in days vs. control)” value (U251 GBM; Table 3) was 13% and the “LTC (long-term cure, >30-35 days)” value (U251 GBM; Table 3) was 0. For the same compound, the complete responders (U251 GBM; Table 4 tumors, daily dosing for 5 days) was “did not produce any complete responders”, the “% ILS” value (U251 GBM; U251 IC, 90 mg/kg IP q1d x 5d) was 17% and the “% LTS (given as survivors/animals)” value (U251 GBM; U251 IC, 90 mg/kg IP q1d x 5d) was 0/5. For the same compound, the “% ILS” value (MX-1 Breast Cancer; MX-1 IC, 60 mg/kg IP q1d x 5d) was 12% and the “% LTS (given as survivors/animals)” value (MX-1 Breast Cancer; MX-1 IC, 60 mg/kg IP q1d x 5d) was 0/5.
